In assay [1] the test system is MT4. The experiment in a line: Anti-HIV-1 activity against K103N strain in MT-4 cells by the MTT method. The conditions noted are these: Homo sapiens. Type of assay: functional, cell-based. (Formazan colour is commonly taken as a measure of viable cells.)
Assay [2] concerns MT4. The experiment in a line: Anti-HIV-1 activity against Y181C strain, in MT-4 cells by the MTT method. In kind it is functional, cell-based. The conditions noted are these: Homo sapiens.
For assay [3], the system named is MT4. The experiment in a line: Anti-HIV-1 activity against LAI strain in MT-4 cells by the MTT method. The conditions noted are these: Homo sapiens. In kind it is functional, cell-based.
Assay [4] can be described thus: Selectivity index is the ratio of 50% cytotoxic concentration to IC50 against LAI strain in MT-4 cells by the MTT method was determined. Type of assay: functional, MT4.
Assay [5] deals with MT4. The assay can be described thus: Anti-HIV-1 activity against LAI strain in MT-4 cells. In kind it is functional, cell-based. The conditions noted are these: Homo sapiens.
The subject of assay [6] is MT4. The experiment in a line: Anti-HIV-1 activity against K103N+Y181C strain was determined in MT-4 cells by the MTT method. In kind it is functional, cell-based. Conditions: Homo sapiens.
Assay [7] concerns MT4. The experiment in a line: Anti-HIV-1 activity against Y188L strain was determined in MT-4 cells by the MTT method. In kind it is functional, cell-based. The conditions noted are these: Homo sapiens.
In assay [8] the test system is MT4. The experiment in a line: Anti-HIV-1 activity against K103N+[…] strain was determined in MT-4 cells by the MTT method. In kind it is functional, cell-based. The conditions noted are these: Homo sapiens.
Assay [9] relates to MT4. The experiment in a line: Anti-HIV-1 activity against […] strain was determined in MT-4 cells by the MTT method. Type of assay: functional, cell-based. The conditions noted are these: Homo sapiens.

In the case of `CCc1c(C)nc(O)c(I)c1Oc1cccc(C)c1`, the IC50 in the assay on MT4 [1] stood at 0.032 µM; with MT4 [2] it was 0.051 µM; with MT4 [3], 0.0016 µM. For the same compound, the SI in assay [4] stood at 19900.
In the assay on MT4 [5], `O=c1[nH]c(=O)n(COCCO)c(Sc2ccccc2)c1I` showed an IC50 of 3.6 µM.
`CCc1c(C)nc(O)c(I)c1Oc1ccccc1`: the results for the half-maximal inhibitory concentration (IC50) in the assay with MT4 [1], in the assay with MT4 [2] and in the assay on MT4 [3] were 0.04 µM, 0.316 µM and 0.0016 µM, respectively. In addition, the SI in assay [4] is 63000.
With `O=C1Nc2ccc(Cl)cc2[C@@](C#CC2CC2)(C(F)(F)F)O1` [EFAVIRENZ], the IC50 in the assay on MT4 [1] is 0.04 µM; in the assay with MT4 [2], 0.04 µM; with MT4 [3], 0.001 µM; with MT4 [6], 0.04 µM; in the assay on MT4 [7] it was 0.2 µM; with MT4 [8], over 10 µM. The same compound had a half-maximal inhibitory concentration (IC50) with MT4 [9] of 0.002 µM.
Turning to `CCOCn1c(Cc2ccccc2)c(C(C)C)c(=O)[nH]c1=O` [EMIVIRINE], the values for the 50% inhibitory concentration (IC50) in the assay on MT4 [1], in the assay on MT4 [2] and with MT4 [3] were 0.032 µM, 0.1 µM and 0.008 µM, respectively. Also, the SI in assay [4] was 12500.
With `CCc1c(Oc2cc(C)cc(C)c2)cc(=O)[nH]c1C`, in the assay with MT4 [3], the IC50 turned out to be 0.5 µM. In assay [4], the SI amounted to 200.
As to `CCc1c(C)nc(O)c(N(C)C)c1Oc1cc(C)cc(C)c1`, the IC50 with MT4 [1] worked out at 0.05 µM; with MT4 [2] it was 0.158 µM; in the assay on MT4 [3], 0.004 µM. In [4], the SI is 25000.
Regarding `CC(C)Nc1cccnc1N1CCN(C(=O)c2cc3cc(NS(C)(=O)=O)ccc3[nH]2)CC1` [DELAVIRDINE], the results for the half-inhibitory concentration (IC50) with MT4 [6], in the assay with MT4 [8] and with MT4 [9] were over 10 µM, over 10 µM and 1.9 µM, respectively.
On to `CCOCn1c(Cc2cc(C)cc(C)c2)c(C(C)C)c(=O)[nH]c1=O`, for which the 50% inhibitory concentration (IC50) in the assay with MT4 [1] was determined as 0.04 µM; with MT4 [2], 0.18 µM; with MT4 [3], 0.001 µM. Besides, the SI in assay [4] is 52000.
With `CCc1c(C)[nH]c(=O)c(N(C)C)c1Cc1cc(C)cc(C)c1`, the IC50 was determined as 0.032 µM in the assay with MT4 [1]; 0.1 µM with MT4 [2]; 0.008 µM in the assay with MT4 [3]; 0.8 µM in the assay with MT4 [6]; 0.3 µM in the assay with MT4 [7]; 0.05 µM in the assay on MT4 [9]. For the same compound, the SI in [4] is 12500.
Take `CCc1c(C)[nH]c(=O)c(I)c1Oc1cc(C)cc(C)c1`: the IC50 with MT4 [1] stood at 0.003 µM; with MT4 [2], 0.02 µM; in the assay on MT4 [3], 0.0013 µM; in the assay on MT4 [6] it was 0.04 µM; in the assay on MT4 [7], 0.045 µM; in the assay with MT4 [8], 0.02 µM. Besides, the IC50 with MT4 [9] was found to be 0.006 µM. Also, in assay [4], the SI stood at 9000.
For `CCc1c(C)nc(O)c([N+](=O)[O-])c1Oc1cc(C)cc(C)c1`, the IC50 in the assay with MT4 [1] was found to be 0.1 µM; with MT4 [2], 0.158 µM; in the assay with MT4 [3], 0.004 µM. Moreover, the SI in assay [4] is 2500.

As usually defined, the IC50 is the concentration at which inhibition is half-maximal. Low values mean greater potency, high ones weaker potency.

The values are drawn from ChEMBL document CHEMBL1136472, “3-iodo-4-phenoxypyridinones (IOPY's), a new family of highly potent non-nucleoside inhibitors of HIV-1 reverse transcriptase” (Bioorg Med Chem Lett, 2003).
